Measurements taken from patent US20040260318A1, “Anastomotic connector devices” (Angiotech International AG, priority 2003, published 2004).

Experiments:
[1] = system: Primary human smooth muscle cells; assay: Screening assay for smooth muscle cell migration (Boyden chamber, rhPDGF-BB chemotaxis); type: cell-based; conditions: 4 hours migration toward rhPDGF-BB 10 ng/mL, FIG. 8
[2] = system: AP-1 transcriptional activity; assay: IL-1 stimulated AP-1 driven CAT reporter gene activity in chondrocytes; type: cell-based; conditions: transfected chondrocytes, concentration dependent, 10^−7 to 10^−5 M
[3] = system: AP-1 DNA binding activity; assay: IL-1 induced AP-1 DNA binding activity, gel mobility shift assay; type: cell-based; conditions: chondrocyte lysates, pretreated at 10^−7 to 10^−5 M for 24 hours
Solubility in water = type: physicochemical
[4] = system: Chick Chorioallantoic Membrane; assay: Chick chorioallantoic membrane (CAM) angiogenesis assay; conditions: for Inhibition/n: 48 hours
collagenase (MMP-1) mRNA = assay: IL-1 induced MMP-1 (collagenase) mRNA expression in chondrocytes, Northern blot
stromelysin (MMP-3) mRNA = assay: IL-1 induced MMP-3 (stromelysin) mRNA expression in chondrocytes, Northern blot
[5] = chondrocytes pretreated for 24 hours, IL-1 induced

IC50 [1]: 0.76 nM
IL-1 induced AP-1 binding activity to DNA [3]: decreased
solubility in water (Solubility in water): insoluble in water
inhibition of collagenase mRNA expression (collagenase (MMP-1) mRNA; at 10^−5 M): complete inhibition
levels of collagenase mRNA (collagenase (MMP-1) mRNA; [5]): significantly reduced
SMILES: CC(=O)O[C@H]1C(=O)[C@@]2(C)[C@H]([C@H](OC(=O)c3ccccc3)[C@]3(O)C[C@H](OC(=O)[C@H](O)[C@@H](NC(=O)c4ccccc4)c4ccccc4)C(C)=C1C3(C)C)[C@]1(OC(C)=O)CO[C@@H]1C[C@@H]2O [paclitaxel, 5β,20-Epoxy-1,2Alpha,4,7β,10β,13Alpha-hexahydroxytax-11-en-9-one-4,10-diacetate-2-benzoate-13-(Alpha-phenylhippurate)]
IL-1 induced AP-1 reporter gene CAT activity [2]: reduced
Inhibition/n ([4]; 0.25 ug in methylcellulose (10 ul) disk, CAMs with positive antiangiogenesis response / n): 2/11
Inhibition/n ([4]; 0.5 ug in methylcellulose (10 ul) disk): 6/11
Inhibition/n ([4]; 1 ug in methylcellulose (10 ul) disk): 6/15
Inhibition/n ([4]; 5 ug in methylcellulose (10 ul) disk): 20/27
Inhibition/n ([4]; 10 ug in methylcellulose (10 ul) disk): 16/21
Inhibition/n ([4]; 30 ug in methylcellulose (10 ul) disk): 31/31
angiogenesis in the CAM ([4]; 48 hours after application): inhibited
avascular gradient scale, maximal avascular zone ([4]; within 48 hours, depending on concentration): 3
concentration inhibiting collagenase expression in vitro (collagenase (MMP-1) mRNA): 10^−6 M
concentration inhibiting stromelysin expression in vitro (stromelysin (MMP-3) mRNA): 10^−6 M
inhibition of stromelysin mRNA expression (stromelysin (MMP-3) mRNA; at 10^−5 M): complete inhibition
levels of stromelysin mRNA (stromelysin (MMP-3) mRNA; [5]): significantly reduced
